Like-named read-outs stand apart in the source and are kept apart here.
Assays:
T. b. brucei = assay: Serum-shift assay (effect of foetal calf serum on trypanocidal IC50); type: cell-based, Trypanosoma brucei brucei; details: 72 h, relative to 2·5% serum
Experimental: To assess the potential effects of protein binding on trypanocidal activity, parasite viability assays were performed in the presence of increasing concentrations (2·5–50%) of foetal calf serum (Invitrogen, Carlsbad, CA) in HMI-9 media. T. b. brucei parasites were conditioned to the test serum concentrations for at least one round of passage prior to assay. Test compounds were added, incubated for 72 h, signal measured and IC50 determinations were conducted as described above using the resazurin endpoint. The fold change in IC50 from minimal serum concentration to maximal serum concentration was calculated and used to compare compounds and their potential for being restrictively protein bound.

T. brucei = details: cited from earlier work
[1] = cited from earlier work
[2] = human patients, 24 h after last injection of multi-day regimen; ref Burri and Keiser, [2001]; cited from earlier work
[3] = intravenous 2·2–3·6 mg kg^−1, uninfected vervet monkeys; ref Burri et al. [1994]; cited from earlier work
[4] = parameters: method as in Sanderson et al. [2008]; details: mice; ref Sanderson et al. [2008]; cited from earlier work
[5] = parameters: method as in Milford et al. [1993]; details: human patients; ref Milford et al. [1993]; cited from earlier work
[6] = test system: MDCKII-hMDR1 monolayer (Pgp efflux transporter); assay: MDCKII-hMDR1 monolayer permeability and Pgp-mediated efflux; type: in vitro ADME; details: for Mass balance A–B+GF918 / Mass balance A–B: 3 μM; for Mass balance A–B+GF918: with GF918; for Mass balance A–B: without GF918
Experimental: (§1) The propensity of test compounds to cross the BBB was examined using an in vitro MDCKII-hMDR1 monolayer assay (Polli et al. [2001]). In summary, MDCKII-hMDR1 cells (Netherlands Cancer Institute, Amsterdam, the Netherlands) were seeded at a density of 3×10^5 cells per well onto microporous polycarbonate membranes in 12 well Costar Transwell plates (Corning Inc., Lowell, MA). The cells were incubated for 3 days during which time they formed confluent monolayers. Trans-epithelial resistance (TEER) was measured for each insert to ensure the integrity of the monolayer (acceptable TEER >160 Ω cm^2). The permeability and susceptibility for Pgp-mediated efflux was evaluated by adding each compound at a concentration of 3 μM, in the presence or absence of 2 μM GF120918 (a potent Pgp inhibitor), to the apical compartment. Competency of the Pgp efflux transporter was confirmed by assay of propranolol (non-substrate) and amprenavir (substrate). Cell monolayers were incubated in triplicate with shaking (160 rpm) at 37 °C in a 5% CO2-enriched humidified atmosphere for 1 h. Samples were removed from the apical and basolateral compartments after incubation and assayed for test compound concentrations by LC-MSMS. Values for mass balance, PappA−B, PappA−B+GF918, and absorption quotient (AQ) were calculated for each compound (Troutman and Thakker, [2003]; Thiel-Demby et al. [2004]). Acceptance criterion for mass balance was 70–120%.

P-gp (human MDR1) = assay: as above; type: in vitro ADME; details: dog, 3 μM
Experimental: as §1

[7] = Single oral dose pharmacokinetics and CNS penetration in male CD-1 mice; type: in vivo, mouse
Experimental: The CNS disposition and pharmacokinetics of the benzoxaboroles were evaluated in infected and uninfected mice following oral administration. In vivo phases of single-dose rodent PK studies were performed at Vivisource (Waltham, MA) following Institutional Animal Care and Use Committee (IACUC) review in an Association for Assessment and Accreditation of Laboratory Animal Care International (AAALAC)-approved facility. Studies in Trypanosoma brucei brucei (TREU 667 strain) infected mice, or uninfected satellite animals, were performed after IACUC review at Pace University (NewYork, NY).
Male CD-1 or female Swiss Webster mice (approximately 25 g) were administered test compounds by oral gavage either once (QD) or twice per day (Q12 h) with doses ranging between 6 and 100 mg kg^−1 as described below. All compounds were formulated as an in situ sodium salt in 2% (v/v) ethanol, 5% (m/v) dextrose, to yield typically clear colourless solutions that were administered at 4 mL kg^−1. Blood samples for pharmacokinetic studies were collected into polypropylene tubes containing K2EDTA anticoagulant and stored on wet ice until centrifuged and processed to plasma. Plasma was stored at −80 °C. Blood samples from mice were collected via cardiac puncture under terminal anaesthesia. Rodents were euthanized in a CO2 chamber before collection of terminal blood or tissue samples. Brain tissues were blotted dry and stored at approximately −80 °C.
Plasma (50 μL) was treated with 4 volumes of ice-cold methanol (containing 25 ng mL^−1 of either deuterium (d6)-labelled SCYX-7158 internal standard (SCYX-5232) for SCYX-7158 analyses or a related benzoxaborole for other compounds) to precipitate proteins. Treated samples were gently mixed on a 96-well plate shaker for approximately 10 min then centrifuged at approximately 3000 g and 15 °C for 15 min. Supernatants were transferred to fresh 96-well plates for analysis by means of LC-MSMS. Samples of tissue homogenate (50 μL), or buffer from protein binding studies, were treated similarly to plasma samples.
All biological samples were assayed by a verified LC-MSMS method employing two dimensional chromatographic separation to overcome ion suppression (Annesely, [2003]) caused by co-elution of endogenous components with benzoxaboroles. In summary, treated samples were loaded onto Phenomenex (Torrance, CA) Synergi Polar RP, 4 μ, 50×2 mm extraction columns and subsequently back-eluted onto a Phenomenex Luna C8(2) 3 μ, 50×2 mm analytical columns protected by a Phenomenex C8 guard cartridge. Mobile phases for extraction and analytical columns consisted of 5 mM ammonium formate and 0·1% (v/v) formic acid in water (A), and 5 mM ammonium formate and 0·1% (v/v) formic acid in methanol (B). […]

L929 mammalian cell line = assay: L929 mammalian cell cytotoxicity / selectivity; type: cell-based; details: parasite vs L929
[8] = Binding to human plasma protein by rapid equilibrium dialysis; type: in vitro ADME; details: 1 μg mL^−1
Experimental: Binding to plasma proteins, brain homogenates or proteins in serum-fortified HMI-9 media was determined by rapid equilibrium dialysis (RED) (Pierce, Rockford, IL) using a 48-well plate-based format according to the manufacturer's instructions. Briefly, test compound was added to fresh plasma (Bioreclamation, Liverpool, NY) at the required concentrations, freshly prepared brain homogenate or media. Duplicate aliquots of each sample were transferred into the sample chambers of the RED devices, and dialysis buffer (BupH PBS) was added to the buffer chambers. The plates were sealed and incubated at 37 °C for 4 h. After dialysis, samples collected from the buffer and tissue chambers were treated with ice-cold methanol (3 volumes for plasma or HMI-9 media, 4 volumes for brain) to precipitate proteins. The treated samples were centrifuged for 10 min at approximately 3000 g at 15 °C. The supernatants were assayed for test compound by LC-MSMS. Calibration standards and quality control samples were prepared in matched matrix and assayed with samples. Values for unbound and bound fractions and mass balance were calculated. Concordance of binding for each batch of plasma was confirmed by assay of warfarin, imipramine and carbamezapine. Acceptance criterion for mass balance was 70–120%.

T. b. brucei (TREU 667) = assay: Murine model of Stage 2 (CNS) HAT; type: in vivo, mouse; details: oral administration
Experimental: The efficacy of benzoxaboroles was evaluated in a murine model of Stage 2 (CNS) HAT (Nare et al. [2010]; Jacobs et al. [2011]). In summary, mice (n = 10 per group) were infected by bolus i.p. injection of 1×10^4 T. b. brucei (TREU 667) parasites. A single bolus i.p. dose (10 mg kg^-1) of berenil (Sigma-Aldrich, St. Louis, MO) was administered on day 4 as a positive treatment control for haemolymphatic-stage infection. Infection of the remaining animals proceeded for 21 days to establish a CNS infection before treatment with either a single dose of berenil (as above) or test compounds by the oral route either once or twice daily over 7 days at the doses indicated below. Animals were checked at least weekly for parasitaemia and were immediately removed from cages and euthanized upon recrudescence. Animals were considered cured if they were […] for at least 180 days after treatment.

[9] = MDCK-MDR1, with GF120918 2 μM, with 2 μM GF120918, read-out: Papp, A–B direction+GF918
[10] = MDCK-MDR1, read-out: Papp, A–B direction

SMILES	P-gp classification [6]	Mass balance A–B+GF918 [6]	Mass balance A–B [6]	Papp A→B at 1 h, 3 μM (P-gp (human MDR1); [9])	Papp A→B at 1 h, 3 μM (P-gp (human MDR1); [10])	time CNS (brain) total concentration above MIC [7]	Mass balance [8]	Selectivity (L929 mammalian cell line)	also measured
Cc1ccc(C(=O)Nc2ccc(S(=O)(=O)O)c3cc(S(=O)(=O)O)cc(S(=O)(=O)O)c23)cc1NC(=O)c1cccc(NC(=O)Nc2cccc(C(=O)Nc3cc(C(=O)Nc4ccc(S(=O)(=O)O)c5cc(S(=O)(=O)O)cc(S(=O)(=O)O)c45)ccc3C)c2)c1 [suramin]									fold change in IC50 between 2·5 and 50% calf serum (T. b. brucei): 26 fold
Nc1nc(N)nc(Nc2ccc([As]3SCC(CO)S3)cc2)n1 (stereo not shown) [melarsoprol]									in vitro MIC (T. brucei; ref Burri et al. [1994]): 2 to 100 ng/mL; drug-induced death, patients ([1]; Stage 2 HAT patients, ref Schmid et al. [2004], Doua et al. [2005], Kuepfer et al. [2012]): 2–10%; failure rate with treatment ([1]; ref Legros et al. [1999]): 3–30%; CSF concentration [2]: 39 to 79 ng/mL; maximum concentration in CSF [3]: ~50 ng/mL
NCCCC(N)(C(=O)O)C(F)F (stereo not shown) [eflornithine]									maximum concentration (CNS exposure) [4]: 10 to 40 nM; CSF level at steady state [5]: 5 to 150 nM; in vitro MIC (T. brucei; ref Sanderson et al. [2008]): ca. 50 μM

The next lines start with results.

P-gp classification [6]	Mass balance A–B+GF918 [6]	Mass balance A–B [6]	Papp A→B at 1 h, 3 μM (P-gp (human MDR1); [9])	Papp A→B at 1 h, 3 μM (P-gp (human MDR1); [10])	time CNS (brain) total concentration above MIC [7]	Mass balance [8]	SMILES	Selectivity (L929 mammalian cell line)	also measured
Non-substrate	99%	94%	46.5 ×10⁻⁶ cm/s	43.8 ×10⁻⁶ cm/s	1 h	106%	[O-][S+](c1ccc(Cl)cc1)c1ccc2c(c1)B(O)OC2 (stereo not shown) [AN2920]	⩾49	time plasma concentration maintained above MIC ([7]; total concentration): approximately 7 h
Non-substrate	90%	92%	43.4 ×10⁻⁶ cm/s	42.4 ×10⁻⁶ cm/s		110%	O=C(Nc1ccc2c(c1)B(O)OC2)c1ccccc1C(F)(F)F [AN3520]	⩾94	
Non-substrate	95%	89%	38.6 ×10⁻⁶ cm/s	37.9 ×10⁻⁶ cm/s	approximately 10 h	97%	O=C(Nc1ccc2c(c1)B(O)OC2)c1ccc(F)cc1C(F)(F)F [SCYX-6759]	⩾136	cures in the CNS (Stage 2) murine model (T. b. brucei (TREU 667)): 100%
